Experimental data reported in publication PMC8474119, “Discovery and SAR Evolution of Pyrazole Azabicyclo[3.2.1]octane Sulfonamides as a Novel Class of Non-Covalent N-Acylethanolamine-Hydrolyzing Acid Amidase (NAAA) Inhibitors for Oral Administration” (Journal of Medicinal Chemistry, 2021).
“And” between values parts separate entries of the source, which are not always exact repeats. Equal values may be shown once.

Target: T1, h-NAAA (Homo sapiens, UniProt Q02083)
T1 construct: made in house; host or cells: HEK-293 cells stably overexpressing human NAAA; enzyme-enriched (lysosomal) lysate
T1 sequence (Q02083 29-125 limits assumed): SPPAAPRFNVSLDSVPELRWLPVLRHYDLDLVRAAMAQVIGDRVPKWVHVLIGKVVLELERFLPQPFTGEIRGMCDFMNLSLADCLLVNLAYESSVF
T1 sequence (Q02083 126-359 limits assumed): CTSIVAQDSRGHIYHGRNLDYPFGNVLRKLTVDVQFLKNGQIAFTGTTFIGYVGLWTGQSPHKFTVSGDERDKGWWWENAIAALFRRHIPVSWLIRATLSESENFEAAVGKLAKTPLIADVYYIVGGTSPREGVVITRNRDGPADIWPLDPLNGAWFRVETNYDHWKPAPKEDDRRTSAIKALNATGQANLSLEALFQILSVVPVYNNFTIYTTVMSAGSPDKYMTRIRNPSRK
Assay: Fluorogenic human-NAAA assay (h-NAAA, fluo.)
Assay type: biochemical
Settings: LipE = pIC50 – c Log P (h-NAAA)
Experimental: Human recombinant proteins were obtained from HEK-293 stable overexpressing human NAAA, AC, and FAAH-1 cell lines, respectively. Cells were grown in Dulbecco’s modified Eagle medium (DMEM) containing 10% FBS, 1% glutamine, 1 mM sodium pyruvate, and 500 μg/mL geneticin (G418). To obtain a high-density cell proliferation, h-NAAA-HEK-293 cells were grown in BelloCell-500 bottle, a compact bioreactor. On the contrary, h-AC and h-FAAH-1-HEK-293 cells were grown in 150 mm dishes and scraped off with cold PBS 1× pH 7.4 at 80% confluence. Cell pellets were collected and stored at −80 °C until protein preparation.
HEK-293 cells stably transfected with the human NAAA or human AC coding sequences were used as the enzyme source. Cells were suspended in 20 mM Tris-HCl (pH 7.4) with 0.32 M sucrose, sonicated, and centrifuged at 800g for 30 min at 4 °C. Supernatants were then centrifuged at 12,000g for 30 min at 4 °C. Pellets were resuspended in PBS buffer (pH 7.4) and subjected to three freeze-thaw cycles at −80 °C. The suspension was finally centrifuged at 105,000g for 1 h at 4 °C, supernatants were collected, protein concentration was measured, and samples were aliquoted and stored at −80 °C until use.
The assay was run in 96-well microplates (Black OptiPlate-96 F; PerkinElmer, Massachusetts, USA), in a total reaction volume of 200 μL. h-NAAA protein preparation (4 μg) was preincubated for 30 min with various concentrations of test compounds or vehicle control (DMSO 5%) in 100 mM citrate/phosphate buffer (pH 4.5) containing 3.0 mM DTT, 0.1% NP40, 0.05% BSA, and 150 mM NaCl. The background (no activity) samples were prepared using assay buffer without h-NAAA and DMSO (5%). N-(4-methyl-2-oxo-chromen-7-yl)-hexadecanamide (PAMCA)[60] was used as a substrate (2 μM) and the reaction was carried out for 50 min at 37 °C. Fluorescence was measured with EnVision 2014 Multilabel Reader (PerkinElmer, Massachusetts, USA) using an excitation wavelength of 355 nm and an emission of 460 nm. IC50 values were calculated by non-linear regression analysis of log[concentration]/response curves generated with mean replicate values using a four-parameter Hill equation curve fitting with GraphPad Prism 5 (GraphPad Software Inc., CA, USA).

Row | LipE | SMILES
1 | 6.3 | Cc1n[nH]c(C)c1S(=O)(=O)N1CCC(Oc2cnccn2)CC1 [Compound 1, 2-((1-((3,5-Dimethyl-1H-pyrazol-4-yl)sulfonyl)piperidin-4-yl)oxy)pyrazine]

Same assay, conditions: Table S1; h-NAAA (fluo.)

Row | pIC50 | SMILES
2 | 5.96 | Cc1n[nH]c(C)c1S(=O)(=O)N1CCC(Oc2cnccn2)CC1 [Compound 1, 2-((1-((3,5-Dimethyl-1H-pyrazol-4-yl)sulfonyl)piperidin-4-yl)oxy)pyrazine]

Same assay, conditions: h-NAAA (fluo.)

Row | SMILES | h-NAAA inhibitory activity, in words
3 | Cc1n[nH]cc1S(=O)(=O)N1CCC(Oc2cnccn2)CC1 [Compound 2, 2-((1-((3-Methyl-1H-pyrazol-4-yl)sulfonyl)piperidin-4-yl)oxy)pyrazine] | devoid of any activity
4 | O=S(=O)(c1cn[nH]c1)N1CCC(Oc2cnccn2)CC1 [Compound 3, 2-((1-((1H-Pyrazol-4-yl)sulfonyl)piperidin-4-yl)oxy)pyrazine] | devoid of any activity
5 | COc1n[nH]c(C)c1S(=O)(=O)N1CCC(Oc2cnccn2)CC1 [Compound 13, 2-((1-((3-Methoxy-5-methyl-1H-pyrazol-4-yl)sulfonyl)piperidin-4-yl)oxy)pyrazine] | no detectable activity
6 | Cc1n[nH]c(C)c1C(=O)N1CCC(Oc2cnccn2)CC1 [Compound 16, (3,5-Dimethyl-1H-pyrazol-4-yl)(4-(pyrazin-2-yloxy)piperidin-1-yl)methanone] | complete loss of activity
7 | Cc1n[nH]c(C)c1S(=O)(=O)N1[C@@H]2CC[C@H]1C[C@H](Oc1cnccn1)C2 [Compound 21, (1R,3s,5S)-8-((3,5-Dimethyl-1H-pyrazol-4-yl)sulfonyl)-3-(pyrazin-2-yloxy)-8-azabicyclo[3.2.1]octane] | devoid of any activity
8 | Cc1n[nH]c(C)c1S(=O)(=O)N1CCC(Cc2cnccn2)CC1 [Compound 23, 2-((1-((3,5-Dimethyl-1H-pyrazol-4-yl)sulfonyl)piperidin-4-yl)methyl)pyrazine] | abolished the inhibitory activity
9 | Cc1n[nH]c(C)c1S(=O)(=O)N1CCC(c2cnccn2)CC1 [Compound 24, 2-(1-((3,5-Dimethyl-1H-pyrazol-4-yl)sulfonyl)piperidin-4-yl)pyrazine] | abolished the inhibitory activity

Next, values leading:

Row | h-NAAA inhibitory activity, in words | SMILES
10 | complete loss of inhibitory effect | Cc1nn(C)c(C)c1S(=O)(=O)N1CCC(Oc2cnccn2)CC1 [Compound 4, 2-((1-((1,3,5-Trimethyl-1H-pyrazol-4-yl)sulfonyl)piperidin-4-yl)oxy)pyrazine]
11 | complete loss of inhibitory effect | Cc1noc(C)c1S(=O)(=O)N1CCC(Oc2cnccn2)CC1 [Compound 5, 3,5-Dimethyl-4-((4-(pyrazin-2-yloxy)piperidin-1-yl)sulfonyl)isoxazole]
12 | complete loss of inhibitory effect | Cc1cnn(C)c1S(=O)(=O)N1CCC(Oc2cnccn2)CC1 [Compound 6, 2-((1-((1,4-Dimethyl-1H-pyrazol-5-yl)sulfonyl)piperidin-4-yl)oxy)pyrazine]
13 | complete loss of enzyme inhibition | Cc1n[nH]c(C)c1S(=O)(=O)N1CC(Oc2cnccn2)C1 [Compound 18, 2-((1-((3,5-Dimethyl-1H-pyrazol-4-yl)sulfonyl)azetidin-3-yl)oxy)pyrazine]
14 | abolished the inhibitory activity | Cc1n[nH]c(C)c1S(=O)(=O)N1CCC(Nc2cnccn2)CC1 [Compound 22, N-(1-((3,5-Dimethyl-1H-pyrazol-4-yl)sulfonyl)piperidin-4-yl)pyrazin-2-amine]
15 | inactive | Cc1n[nH]c(C)c1S(=O)(=O)N1C[C@H]2CCC[C@@H](C1)[C@H]2Oc1cnccn1 [Compound 28, (1R,5S,9r)-3-((3,5-Dimethyl-1H-pyrazol-4-yl)sulfonyl)-9-(pyrazin-2-yloxy)-3-azabicyclo[3.3.1]nonane]

Same assay, conditions: h-NAAA (fluo.), mean ± SD (n ≥ 3); n.a.: not active @50 μM (<10% inhibition)

Row | SMILES | IC50
16 | Cc1cccc(C)c1S(=O)(=O)N1CCC(Oc2cnccn2)CC1 [Compound 7, 2-((1-((2,6-Dimethylphenyl)sulfonyl)piperidin-4-yl)oxy)pyrazine] | 4480 ± 940 nM
17 | Cc1[nH]nc(C(C)C)c1S(=O)(=O)N1CCC(Oc2cnccn2)CC1 [Compound 11, 2-((1-((3-isoPropyl-5-methyl-1H-pyrazol-4-yl)sulfonyl)piperidin-4-yl)oxy)pyrazine] | 640 ± 140 nM
18 | Cc1[nH]nc(C(C)(C)C)c1S(=O)(=O)N1CCC(Oc2cnccn2)CC1 [Compound 12, 2-((1-((3-(tert-Butyl)-5-methyl-1H-pyrazol-4-yl)sulfonyl)piperidin-4-yl)oxy)pyrazine] | 780 ± 120 nM
19 | Cc1n[nH]c(C)c1S(=O)(=O)N(C)CCCOc1cnccn1 [Compound 19, N,3,5-Trimethyl-N-(3-(pyrazin-2-yloxy)propyl)-1H-pyrazole-4-Sulfonamide] | 4290 ± 970 nM
20 | Cc1n[nH]c(C)c1S(=O)(=O)N1[C@@H]2CC[C@H]1C[C@@H](Oc1cnccn1)C2 [Compound 20, (1R,3r,5S)-8-((3,5-Dimethyl-1H-pyrazol-4-yl)sulfonyl)-3-(pyrazin-2-yloxy)-8-azabicyclo[3.2.1]octane] | 230 ± 10 nM
21 | Cc1n[nH]c(C)c1S(=O)(=O)N1[C@@H]2CCC[C@H]1C[C@@H](Oc1cnccn1)C2 [Compound 25, (1R,3r,5S)-9-((3,5-Dimethyl-1H-pyrazol-4-yl)sulfonyl)-3-(pyrazin-2-yloxy)-9-azabicyclo[3.3.1]nonane] | 370 ± 30 nM
22 | Cc1n[nH]c(C)c1S(=O)(=O)N1[C@@H]2COC[C@H]1C[C@@H](Oc1cnccn1)C2 [Compound 26, (1R,5S,7s)-9-((3,5-Dimethyl-1H-pyrazol-4-yl)sulfonyl)-7-(pyrazin-2-yloxy)-3-oxa-9-azabicyclo[3.3.1]nonane] | 2330 ± 830 nM
23 | Cc1n[nH]c(C)c1S(=O)(=O)N1C[C@H]2CCC[C@@H](C1)[C@@H]2Oc1cnccn1 [Compound 29, (1R,5S,9s)-3-((3,5-Dimethyl-1H-pyrazol-4-yl)sulfonyl)-9-(pyrazin-2-yloxy)-3-azabicyclo[3.3.1]nonane] | 690 ± 60 nM
24 | Cc1n[nH]c(C)c1S(=O)(=O)N1[C@@H]2CC[C@H]1C[C@@H](Oc1ccccn1)C2 [Compound 30, (1R,3r,5S)-8-((3,5-Dimethyl-1H-pyrazol-4-yl)sulfonyl)-3-(pyridin-2-yloxy)-8-azabicyclo[3.2.1]octane] | 160 nM and 162 nM
25 | Cc1n[nH]c(C)c1S(=O)(=O)N1[C@@H]2CC[C@H]1C[C@@H](Oc1ccccc1)C2 [Compound 31, (1R,3r,5S)-8-((3,5-Dimethyl-1H-pyrazol-4-yl)sulfonyl)-3-phenoxy-8-azabicyclo[3.2.1]octane] | 93 ± 20 nM

Now from value to compound:

Row | IC50 | SMILES
26 | 1090 ± 163 nM | Cc1n[nH]c(C)c1S(=O)(=O)N1CCC(Oc2cnccn2)CC1 [Compound 1, 2-((1-((3,5-Dimethyl-1H-pyrazol-4-yl)sulfonyl)piperidin-4-yl)oxy)pyrazine]
27 | 620 ± 120 nM | CCc1n[nH]c(C)c1S(=O)(=O)N1CCC(Oc2cnccn2)CC1 [Compound 8, 2-((1-((3-Ethyl-5-methyl-1H-pyrazol-4-yl)sulfonyl)piperidin-4-yl)oxy)pyrazine]
28 | 330 ± 40 nM | CCCc1n[nH]c(C)c1S(=O)(=O)N1CCC(Oc2cnccn2)CC1 [Compound 9, 2-((1-((5-Methyl-3-propyl-1H-pyrazol-4-yl)sulfonyl)piperidin-4-yl)oxy)pyrazine]
29 | 910 ± 130 nM | CCCCc1n[nH]c(C)c1S(=O)(=O)N1CCC(Oc2cnccn2)CC1 [Compound 10, 2-((1-((3-Butyl-5-methyl-1H-pyrazol-4-yl)sulfonyl)piperidin-4-yl)oxy)pyrazine]
30 | 3290 ± 230 nM | Cc1[nH]nc(C(F)(F)F)c1S(=O)(=O)N1CCC(Oc2cnccn2)CC1 [Compound 14, 2-((1-((5-Methyl-3-(trifluoromethyl)-1H-pyrazol-4-yl)sulfonyl)piperidin-4-yl)oxy)pyrazine]
31 | 1110 ± 310 nM | CCc1n[nH]c(CC)c1S(=O)(=O)N1CCC(Oc2cnccn2)CC1 [Compound 15, 2-((1-((3,5-Diethyl-1H-pyrazol-4-yl)sulfonyl)piperidin-4-yl)oxy)pyrazine]
32 | 15400 ± 3260 nM | Cc1n[nH]c(C)c1S(=O)(=O)N1C[C@H]2CC[C@@H](C1)[C@H]2Oc1cnccn1 [Compound 27, (1R,5S,8r)-3-((3,5-Dimethyl-1H-pyrazol-4-yl)sulfonyl)-8-(pyrazin-2-yloxy)-3-azabicyclo[3.2.1]octane]
